Data from patent US20250250230A1, “HETEROCYCLIC COMPOUND” (TAKEDA PHARMACEUTICAL COMPANY LIMITED, priority 2022, published 2025).

These molecules were tested against T1, human orexin type 2 receptor (Homo sapiens, UniProt O43614) (assay: Measurement of orexin type 2 receptor agonist activity (calcium fluorescence, Fluo-4 AM, FDSS)). Conditions: test compound 3 μM; CHO cells expressing human OX2 receptor; DMSO = 0%, orexin A (human) = 100%.
T1 construct: expressed in transfected cells
T1 sequence (O43614 1-444): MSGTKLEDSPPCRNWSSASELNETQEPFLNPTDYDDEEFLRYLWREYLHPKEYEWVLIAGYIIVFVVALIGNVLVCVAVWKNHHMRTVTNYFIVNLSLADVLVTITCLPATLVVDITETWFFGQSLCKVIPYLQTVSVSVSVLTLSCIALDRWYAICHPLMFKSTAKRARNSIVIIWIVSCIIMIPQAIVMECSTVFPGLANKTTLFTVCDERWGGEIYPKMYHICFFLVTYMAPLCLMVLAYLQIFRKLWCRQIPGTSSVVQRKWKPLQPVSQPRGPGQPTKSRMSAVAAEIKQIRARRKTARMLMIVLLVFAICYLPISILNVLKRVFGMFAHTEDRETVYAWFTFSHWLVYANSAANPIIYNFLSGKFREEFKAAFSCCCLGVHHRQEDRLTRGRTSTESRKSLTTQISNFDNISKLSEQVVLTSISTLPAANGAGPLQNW
Assay type: cell-based
Summary of the method: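 Agonist response scaled between vehicle (0%) and human orexin A at 10 nM final (100%), from 2-min kinetic Fluo-4 fluorescence reads. Stable hOX2R CHO-K1 clone, dye-loaded in HBSS/20 mM HEPES/0.1% BSA with 1.25 mM probenecid before compound addition.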
In the case of `CS(=O)(=O)NC1CCCN(C(=O)C2CC2c2ccccc2-c2cc(F)ccc2F)C1` (racemic) [Example 65, a mixture of rac-N-{(3R)-1-[(1R,2R)-2-(2′,5′-difluoro[1,1′-biphenyl]-2-yl)cyclopropane-1-carbonyl]piperidin-3-yl}methanesulfonamide and rac-N-{(3S)-1-[(1R,2R)-2-(2′,5′-difluoro[1,1′-biphenyl]-2-yl)cyclopropane-1-carbonyl]piperidin-3-yl}methanesulfonamide], the “OX2R agonist activity (3 μM, %)” value is reported as 83%.
For `Cc1ccccc1-c1ccccc1C1CC1C(=O)N1CCCC(NS(C)(=O)=O)C1` (racemic) [Example 66, a mixture of rac-N-{(3R)-1-[(1R,2R)-2-(2′-methyl[1,1′-biphenyl]-2-yl)cyclopropane-1-carbonyl]piperidin-3-yl}methanesulfonamide and rac-N-{(3S)-1-[(1R,2R)-2-(2′-methyl[1,1′-biphenyl]-2-yl)cyclopropane-1-carbonyl]piperidin-3-yl}methanesulfonamide], the “OX2R agonist activity (3 μM, %)” value was 52%.
`CS(=O)(=O)NC1CCCN(C(=O)C2CC2c2ccccc2-c2cccc(F)c2F)C1` (racemic) [Example 67, a mixture of rac-N-{(3R)-1-[(1R,2R)-2-(2′,3′-difluoro[1,1′-biphenyl]-2-yl)cyclopropane-1-carbonyl]piperidin-3-yl}methanesulfonamide and rac-N-{(3S)-1-[(1R,2R)-2-(2′,3′-difluoro[1,1′-biphenyl]-2-yl)cyclopropane-1-carbonyl]piperidin-3-yl}methanesulfonamide] was tested, and the “OX2R agonist activity (3 μM, %)” value was 89%.
For `CS(=O)(=O)NC1CCCN(C(=O)C2CC2c2ccccc2-c2ccc(F)cc2F)C1` (racemic) [Example 68, a mixture of rac-N-{(3R)-1-[(1R,2R)-2-(2′,4′-difluoro[1,1′-biphenyl]-2-yl)cyclopropane-1-carbonyl]piperidin-3-yl}methanesulfonamide and rac-N-{(3S)-1-[(1R,2R)-2-(2′,4′-difluoro[1,1′-biphenyl]-2-yl)cyclopropane-1-carbonyl]piperidin-3-yl}methanesulfonamide], the “OX2R agonist activity (3 μM, %)” value was 85%.
In the case of `CS(=O)(=O)NC1CCCN(C(=O)C2CC2c2ccccc2-c2ccccc2F)C1` (racemic) [Example 72, a mixture of rac-N-{(3R)-1-[(1R,2R)-2-(2′-fluoro[1,1′-biphenyl]-2-yl)cyclopropane-1-carbonyl]piperidin-3-yl}methanesulfonamide and rac-N-{(3S)-1-[(1R,2R)-2-(2′-fluoro[1,1′-biphenyl]-2-yl)cyclopropane-1-carbonyl]piperidin-3-yl}methanesulfonamide], the “OX2R agonist activity (3 μM, %)” value is reported as 81%.
In the case of `CS(=O)(=O)NC1CCCN(C(=O)C2CC2c2ccccc2-c2ccccc2Cl)C1` (racemic) [Example 74, a mixture of rac-N-{(3R)-1-[(1R,2R)-2-(2′-chloro[1,1′-biphenyl]-2-yl)cyclopropane-1-carbonyl]piperidin-3-yl}methanesulfonamide and rac-N-{(3S)-1-[(1R,2R)-2-(2′-chloro[1,1′-biphenyl]-2-yl)cyclopropane-1-carbonyl]piperidin-3-yl}methanesulfonamide], the “OX2R agonist activity (3 μM, %)” value is reported as 84%.
With `CS(=O)(=O)NC1CCN(C(=O)C2CC2c2ccccc2-c2cc(F)ccc2F)C1` (racemic) [Example 80, a mixture of rac-N-{(3R)-1-[(1R,2R)-2-(2′,5′-difluoro[1,1′-biphenyl]-2-yl)cyclopropane-1-carbonyl]pyrrolidin-3-yl}methanesulfonamide and rac-N-{(3S)-1-[(1R,2R)-2-(2′,5′-difluoro[1,1′-biphenyl]-2-yl)cyclopropane-1-carbonyl]pyrrolidin-3-yl}methanesulfonamide] the “OX2R agonist activity (3 μM, %)” value was 66%.
In the case of `CS(=O)(=O)NC1CCN(C(=O)C2CC2c2ccccc2-c2cccc(F)c2F)C1` (racemic) [Example 81, a mixture of rac-N-{(3R)-1-[(1R,2R)-2-(2′,3′-difluoro[1,1′-biphenyl]-2-yl)cyclopropane-1-carbonyl]pyrrolidin-3-yl}methanesulfonamide and rac-N-{(3S)-1-[(1R,2R)-2-(2′,3′-difluoro[1,1′-biphenyl]-2-yl)cyclopropane-1-carbonyl]pyrrolidin-3-yl}methanesulfonamide], the “OX2R agonist activity (3 μM, %)” value is reported as 70%.
With `CS(=O)(=O)NC1CCN(C(=O)C2CC2c2ccccc2-c2ccccc2Cl)C1` (racemic) [Example 85, a mixture of rac-N-{(3R)-1-[(1R,2R)-2-(2′-chloro[1,1′-biphenyl]-2-yl)cyclopropane-1-carbonyl]pyrrolidin-3-yl}methanesulfonamide and rac-N-{(3S)-1-[(1R,2R)-2-(2′-chloro[1,1′-biphenyl]-2-yl)cyclopropane-1-carbonyl]pyrrolidin-3-yl}methanesulfonamide] the “OX2R agonist activity (3 μM, %)” value was 68%.
With `CS(=O)(=O)NC1CCCN(C(=O)C2CC2c2ccc(F)cc2-c2ccccc2)CC1` (racemic) [Example 87, a mixture of rac-N-{(4R)-1-[(1R,2R)-2-(5-fluoro[1,1′-biphenyl]-2-yl)cyclopropane-1-carbonyl]azepan-4-yl}methanesulfonamide and rac-N-{(4S)-1-[(1R,2R)-2-(5-fluoro[1,1′-biphenyl]-2-yl)cyclopropane-1-carbonyl]azepan-4-yl}methanesulfonamide] the “OX2R agonist activity (3 μM, %)” value was 81%.
In the case of `Cc1cccc(C2CC2C(=O)N2CCCC(NS(C)(=O)=O)C2)c1-c1ccccc1` (racemic) [Example 89, a mixture of rac-N-{(3R)-1-[(1R,2R)-2-(6-methyl[1,1′-biphenyl]-2-yl)cyclopropane-1-carbonyl]piperidin-3-yl}methanesulfonamide and rac-N-{(3S)-1-[(1R,2R)-2-(6-methyl[1,1′-biphenyl]-2-yl)cyclopropane-1-carbonyl]piperidin-3-yl}methanesulfonamide], the “OX2R agonist activity (3 μM, %)” value is reported as 64%.
With `CS(=O)(=O)NC1CCCN(C(=O)C2CC2c2c(F)cccc2-c2ccccc2)CC1` (racemic) [Example 95, a mixture of rac-N-{(4R)-1-[(1R,2R)-2-(3-fluoro[1,1′-biphenyl]-2-yl)cyclopropane-1-carbonyl]azepan-4-yl}methanesulfonamide and rac-N-{(4S)-1-[(1R,2R)-2-(3-fluoro[1,1′-biphenyl]-2-yl)cyclopropane-1-carbonyl]azepan-4-yl}methanesulfonamide] the “OX2R agonist activity (3 μM, %)” value was 61%.
For `CS(=O)(=O)NC1CCCN(C(=O)C2CC2c2cc(F)ccc2-c2c(F)cccc2F)CC1` (racemic) [Example 96, a mixture of rac-N-{(4R)-1-[(1R,2R)-2-(2′,4,6′-trifluoro[1,1′-biphenyl]-2-yl)cyclopropane-1-carbonyl]azepan-4-yl}methanesulfonamide and rac-N-{(4S)-1-[(1R,2R)-2-(2′,4,6′-trifluoro[1,1′-biphenyl]-2-yl)cyclopropane-1-carbonyl]azepan-4-yl}methanesulfonamide], the “OX2R agonist activity (3 μM, %)” value was 62%.
`CS(=O)(=O)NC1CCCN(C(=O)C2CC2c2cc(F)ccc2-c2c(F)cccc2F)C1` (racemic) [Example 98, a mixture of rac-N-{(3R)-1-[(1R,2R)-2-(2′,4,6′-trifluoro[1,1′-biphenyl]-2-yl)cyclopropane-1-carbonyl]piperidin-3-yl}methanesulfonamide and rac-N-{(3S)-1-[(1R,2R)-2-(2′,4,6′-trifluoro[1,1′-biphenyl]-2-yl)cyclopropane-1-carbonyl]piperidin-3-yl}methanesulfonamide] was tested, and the “OX2R agonist activity (3 μM, %)” value was 56%.
For `CS(=O)(=O)NC1CCCN(C(=O)C2CC2c2cccc(F)c2-c2ccccc2F)C1` (racemic) [Example 105, a mixture of rac-N-{(3R)-1-[(1R,2R)-2-(2′,6-difluoro[1,1′-biphenyl]-2-yl)cyclopropane-1-carbonyl]piperidin-3-yl}methanesulfonamide and rac-N-{(3S)-1-[(1R,2R)-2-(2′,6-difluoro[1,1′-biphenyl]-2-yl)cyclopropane-1-carbonyl]piperidin-3-yl}methanesulfonamide], the “OX2R agonist activity (3 μM, %)” value was 60%.
For `CS(=O)(=O)NC1CCCN(C(=O)C2CC2c2cccc(F)c2-c2ccccc2F)CC1` (racemic) [Example 106, a mixture of rac-N-{(4R)-1-[(1R,2R)-2-(2′,6-difluoro[1,1′-biphenyl]-2-yl)cyclopropane-1-carbonyl]azepan-4-yl}methanesulfonamide and rac-N-{(4S)-1-[(1R,2R)-2-(2′,6-difluoro[1,1′-biphenyl]-2-yl)cyclopropane-1-carbonyl]azepan-4-yl}methanesulfonamide], the “OX2R agonist activity (3 μM, %)” value was 63%.
With `CCS(=O)(=O)NC1CCCN(C(=O)C2CC2c2ccccc2-c2c(F)cccc2F)CC1` (racemic) [Example 112, a mixture of rac-N-{(4R)-1-[(1R,2R)-2-(2′,6′-difluoro[1,1′-biphenyl]-2-yl)cyclopropane-1-carbonyl]azepan-4-yl}ethanesulfonamide and rac-N-{(4S)-1-[(1R,2R)-2-(2′,6-difluoro[1,1′-biphenyl]-2-yl)cyclopropane-1-carbonyl]azepan-4-yl}ethanesulfonamide] the “OX2R agonist activity (3 μM, %)” value was 101%.
